Measured values published in US20240261272A1, “LPA1 ANTAGONISTS FOR TREATING INTERSTITIAL LUNG DISEASE” (Bristol-Myers Squibb Company, priority 2022, published 2024).

Assay: Phase 1 Part B multiple ascending dose (MAD) study in healthy participants: safety, blood pressure
Assay type: in vivo, human
Parameters: Mean DBP: unit not given here
Procedure: The study was performed in 3 parts in 112 healthy male and female participants, including 24 Japanese participants. Female participants were to be not of childbearing potential. The present study was designed to evaluate the safety and tolerability, PK, and exploratory PD of an oral suspension of Compound A. Parts A and B (Cohort B1 only) enrolled healthy participants and was conducted at a site in The Netherlands and Part B (Cohort B2 to B5) enrolled healthy non-Japanese participants and was conducted at a site in the United Kingdom (UK). Part C enrolled healthy Japanese participants and was conducted at the same site in the UK.
Part B was a MAD study in a planned number of 6 sequential dose escalation cohorts (10 mg QD, 30 mg QD, 30 mg BID, 60 mg BID, 125 mg BID, and ≤250 mg BID) of 8 healthy participants (6 active+2 placebo) each, under fasted conditions. However, Cohort B6 (≤250 mg BID) was cancelled because sufficient safety and PK data had been obtained at doses up to 125 mg BID. Eligible participants received study drug (Compound A or placebo) administered orally for 14 days.
Physical examinations, vital sign measurements (including orthostasis testing in Cohort A6, Cohort B3 to B5, and C1 to C3 at selected time points), 12-lead electrocardiogram (ECG), and clinical laboratory evaluations were performed at selected times throughout the study. In addition, Holter monitoring was performed for the first 24 hours post dose on Day 1 in Part A (not in FE/pH cohort), and also for the first 24 hours post dose on Day 1 and Day 14 in Parts B and C. Participants were closely monitored for adverse events (AEs). Blood samples were collected for up to 14 days (follow-up visit) after (last) study drug administration for PK analysis. In addition, blood and urine were collected for exploratory biomarker assessments and for biobanking of samples for potential analyses. Urine was collected for potential PK analysis for up to 96 hours after a single dose of Compound A or placebo was administered in the SAD part, and for up to 24 hours after the first (morning) dose of study drug on Day 1 and for up to 24 hours after the last (morning) dose of study drug on Day 14 in the MAD parts.

CCCN(C)C(=O)OCc1c(-c2ccc(O[C@H]3CCC[C@H](C(=O)O)C3)c(C)n2)nnn1C [Compound A, (1S,3S)-3-((2-methyl-6-(1-methyl-5-(((methyl(propyl)carbamoyl)-oxy)methyl)-1H-1,2,3-triazol-4-yl)pyridin-3-yl)oxy)cyclohexane-1-carboxylic acid]
Mean DBP (MAD 10 mg QD, D 1 2 h): 70.2
Mean DBP (MAD 10 mg QD, D 1 4 h): 65.8
Mean DBP (MAD 10 mg QD, D 1 8 h): 68.7
Mean DBP (MAD 10 mg QD, D 2 24 h): 65.3
Mean DBP (MAD 10 mg QD, D 14 312 h): 69.3
Mean DBP (MAD 10 mg QD, D 14 314 h): 67.5
Mean DBP (MAD 10 mg QD, D 14 317 h): 64.3
Mean DBP (MAD 10 mg QD, D 14 320 h): 67.5
Mean DBP (MAD 10 mg QD, D 15 336 h): 66.8
Mean DBP (MAD 30 mg BID, D 1 2 h): 63.3
Mean DBP (MAD 30 mg BID, D 1 4 h): 62.7
Mean DBP (MAD 30 mg BID, D 1 8 h): 63.2
Mean DBP (MAD 30 mg BID, D 2 24 h): 66.7
Mean DBP (MAD 30 mg BID, D 14 312 h): 68.7
Mean DBP (MAD 30 mg BID, D 14 314 h): 63.8
Mean DBP (MAD 30 mg BID, D 14 317 h): 61.0
Mean DBP (MAD 30 mg BID, D 14 320 h): 617
Mean DBP (MAD 30 mg BID, D 15 336 h): 65.3
Mean DBP (MAD 30 mg QD, D 1 2 h): 66.5
Mean DBP (MAD 30 mg QD, D 1 4 h): 67.8
Mean DBP (MAD 30 mg QD, D 1 8 h): 66.0
Mean DBP (MAD 30 mg QD, D 2 24 h): 67.3
Mean DBP (MAD 30 mg QD, D 14 312 h): 63.3
Mean DBP (MAD 30 mg QD, D 14 314 h): 63.5
Mean DBP (MAD 30 mg QD, D 14 317 h): 61.8
Mean DBP (MAD 30 mg QD, D 14 320 h): 63.2
Mean DBP (MAD 30 mg QD, D 15 336 h): 62.3
Mean DBP (MAD 60 mg BID, D 1 2 h): 64.5
Mean DBP (MAD 60 mg BID, D 1 4 h): 66.0
Mean DBP (MAD 60 mg BID, D 1 8 h): 64.7
Mean DBP (MAD 60 mg BID, D 2 24 h): 65.7
Mean DBP (MAD 60 mg BID, D 14 312 h): 64.8
Mean DBP (MAD 60 mg BID, D 14 314 h): 64.0
Mean DBP (MAD 60 mg BID, D 14 317 h): 62.5
Mean DBP (MAD 60 mg BID, D 14 320 h): 63.0
Mean DBP (MAD 60 mg BID, D 15 336 h): 64.5
Mean DBP (MAD 125 mg BID, D 1 2 h): 62.3
Mean DBP (MAD 125 mg BID, D 1 4 h): 64.7
Mean DBP (MAD 125 mg BID, D 1 8 h): 64.7
Mean DBP (MAD 125 mg BID, D 2 24 h): 66.3
Mean DBP (MAD 125 mg BID, D 14 312 h): 62.0
Mean DBP (MAD 125 mg BID, D 14 314 h): 65.0
Mean DBP (MAD 125 mg BID, D 14 317 h): 59.2
Mean DBP (MAD 125 mg BID, D 14 320 h): 61.8
Mean DBP (MAD 125 mg BID, D 15 336 h): 63.0
BP reductions versus placebo (in words) (MAD BID groups): no clear differences between placebo and the Compound A groups
